Assay results reported in ChEMBL document CHEMBL1127894, “The synthesis of 2,2,24- trisubstituted oxetanes as new azole antifungal agents” (1994).
In brackets after ≈: the same amount, converted by molar mass. Activity calls are given as the source filed them. The rule behind the calls is not given here.

How the values were obtained:
Candida albicans [1] = test: In vitro inhibition of yeast to mycelial transformation against Candida stellatoidea at concentration of <0.03 ug/mL at pH 7.0; Active; assay type: functional, organism-based
Candida albicans [2] = test: In vitro inhibition of yeast to mycelial transformation against Candida albicans C-43 at concentration of <0.03 ug/mL at pH 7.0; Active; assay type: functional, organism-based
Candida albicans [3] = test: In vitro inhibition of yeast to mycelial transformation against six strains of Candida albicans at concentration of <0.03 ug/mL at pH 7.0; Active; assay type: functional, organism-based
Candida albicans [4] = test: Tested for inhibition of yeast to mycelial transformation against Candida stellatoidea at concentration of 16->64 ug/mL at pH 7.0; Slightly active; assay type: functional, organism-based
Candida albicans [5] = test: Tested for inhibition of yeast to mycelial transformation against Candida albicans C-43 at concentration of 16->64 ug/mL at pH 7.0; Slightly active; assay type: functional, organism-based
Candida parapsilosis [6] = test: Minimum inhibitory concentration against two strains of C. parapsilosis; Inactive; assay type: functional, organism-based
Candida albicans [7] = test: Tested for inhibition of yeast to mycelial transformation against six strains of Candida albicans at concentration of 16->64 ug/mL at pH 7.0; Slightly active; assay type: functional, organism-based
Mus musculus [8] = test: Compound was tested for in vivo activity against 1x 10ex6 CFU of Candida albicans C-43 infected mice at dose of 10 mg/kg; Inactive; assay type: functional, organism-based; set-up: dose 10 mg/kg
Mus musculus [9] = test: Compound was tested for percent survival against Candida albicans C-43 at 50 mg/kg (iv) in mice; assay type: functional
Candida albicans [10] = test: Tested for inhibition of yeast to mycelial transformation against Candida stellatoidea at concentration of <0.03 ug/mL at pH 7.0; Active; assay type: functional, organism-based
Candida parapsilosis [11] = test: Minimum inhibitory concentration against two strains of Candida parapsilosis; assay type: functional; conditions: Lodderomyces parapsilosis
Candida albicans [12] = test: Tested for inhibition of yeast to mycelial transformation against Candida albicans C-43 at concentration of <0.03 ug/mL at pH 7.0; Active; assay type: functional, organism-based
Candida albicans [13] = test: Tested for inhibition of yeast to mycelial transformation against six strains of Candida albicans at concentration of <0.03 ug/mL at pH 7.0; Active; assay type: functional, organism-based
Mus musculus [14] = test: Geometri mean CFUs(log 10) for Candida albicans infected mice treated with 50 mg/kg of compound; assay type: functional
Mus musculus [15] = test: Compound was tested for in vivo activity against Candida albicans C-43 in mice; assay type: functional
Mus musculus [16] = test: Compound was tested for in vivo activity against Candida albicans C-43 in mice at dose of 10 mg/kg; Inactive; assay type: functional, organism-based; set-up: dose 10 mg/kg
Candida albicans [17] = test: Tested for inhibition of yaest to mycelial transformation against Candida albicans C-43 at concentration of <0.03 ug/mL at pH 7.0; Active; assay type: functional, organism-based

Row | SMILES | Activity (Mus musculus [8]) | survival at 50 mg/kg (Mus musculus [9]) | Activity (Candida albicans [10]) | MIC (Candida parapsilosis [11]) | Activity (Candida albicans [13]) | further results
1 | CC(C)N1CCN(c2ccc(OC[C@@H]3C[C@@](Cn4cncn4)(c4ccc(Cl)cc4Cl)O3)cc2)CC1 (racemic) [listing 1 of 2 here] | – | – | – | – | – | Activity (Candida albicans [1]): Active; Activity (Candida albicans [2]): Active; Activity (Candida albicans [3]): Active
2 | CC(C)N1CCN(c2ccc(OC[C@H]3C[C@@](Cn4cncn4)(c4ccc(Cl)cc4Cl)O3)cc2)CC1 (racemic) | – | – | – | – | – | Activity (Candida albicans [4]): Weak activity; Activity (Candida albicans [5]): Weak activity; MIC (Candida parapsilosis [6]): inactive; Activity (Candida albicans [7]): Weak activity
3 | CC(C)N1CCN(c2ccc(OC[C@H]3C[C@@](Cn4cncn4)(c4ccc(Cl)cc4Cl)O3)cc2)CC1 (relative stereo) | inactive | – | – | – | – | –
4 | CC(C)N1CCN(c2ccc(OC[C@H]3CC[C@](Cn4cncn4)(c4ccc(Cl)cc4Cl)O3)cc2)CC1 | inactive | 100% | Active | 0.5 µg/mL (≈ 0.943 µM) | Active | Activity (Candida albicans [12]): Active; Activity (Mus musculus [14]): 4.3
5 | CC(C)N1CCN(c2ccc(OC[C@@H](O)C[C@@](O)(Cn3cncn3)c3ccc(Cl)cc3Cl)cc2)CC1 | – | 100% | Active | 32 µg/mL (≈ 59.9 µM) | Active | Activity (Mus musculus [15]): 4.4; Activity (Candida albicans [12]): Active; Activity (Mus musculus [16]): inactive
6 | CC(C)N1CCN(c2ccc(OC[C@H](O)C[C@@](O)(Cn3cncn3)c3ccc(Cl)cc3Cl)cc2)CC1 | – | 100% | Active | 32 µg/mL (≈ 59.9 µM) | Active | Activity (Candida albicans [17]): Active; Activity (Mus musculus [15]): 4.2; Activity (Mus musculus [16]): inactive
7 | CC(C)N1CCN(c2ccc(OC[C@@H]3C[C@@](Cn4cncn4)(c4ccc(Cl)cc4Cl)O3)cc2)CC1 (racemic) [listing 2 of 2 here] | – | – | – | 32 µg/mL (≈ 62 µM) | – | –
8 | CC(C)N1CCN(c2ccc(OC[C@@H]3C[C@@](Cn4cncn4)(c4ccc(Cl)cc4Cl)O3)cc2)CC1 (relative stereo) | inactive | – | – | – | – | –
